From ChEMBL document CHEMBL3751839, “Novel phenylalanine derived diamides as Factor XIa inhibitors” (Bioorg Med Chem Lett, 2016)

Key:
in vitro = conditions: human, liver microsomes
Description: Stability in human liver microsomes assessed as half life

in vivo [1] = conditions: beagle, dog, iv, 0.4 mg/kg
Description: Half life in beagle dog at 0.4 mg/kg, iv cassette dosing by LC-MS/MS method

in vivo [2] = conditions: beagle, dog, iv, 0.4 mg/kg; remark: listed apart in the source
Description: Volume of distribution at steady state in beagle dog at 0.4 mg/kg, iv cassette dosing by LC-MS/MS method

in vivo [3] = conditions: beagle, dog, iv, 0.4 mg/kg; remark: listed apart in the source
Description: Clearance in beagle dog at 0.4 mg/kg, iv administered as cassette dosing by LC-MS/MS method

in vivo [4] = conditions: beagle, dog, iv, 0.4 mg/kg; remark: listed apart in the source
Description: Total AUC in beagle dog at 0.4 mg/kg, iv administered as cassette dosing by LC-MS/MS method

| Structure (SMILES) | half-life (in vitro) [min] | half-life (in vivo [1]) [min] | Vd (in vivo [2]) [L/kg] | clearance (in vivo [3]) [mL/min/kg] | AUC (in vivo [4]) [µM·h] |
| --- | --- | --- | --- | --- | --- |
| O=C(/C=C/c1cc(Cl)ccc1-n1cnnn1)N[C@@H](Cc1ccccc1)C(=O)Nc1ccc(-n2cnnn2)cc1 | > 100 |  |  |  |  |
| COC(=O)Nc1cccc(NC(=O)[C@H](Cc2ccccc2)NC(=O)/C=C/c2cc(Cl)ccc2-n2cnnn2)c1 | > 100 |  |  |  |  |
| O=C(/C=C/c1cc(Cl)ccc1-n1cnnn1)N[C@@H](Cc1ccccc1)C(=O)Nc1ccc(-c2nc[nH]n2)cc1 | > 100 |  |  |  |  |
| O=C(/C=C/c1cc(Cl)ccc1-n1cnnn1)N[C@@H](Cc1ccccc1)C(=O)Nc1ccc(C(=O)O)cc1 | > 120 | 36 | 0.5 | 16 | 0.396 |
